This assay concerns the target human mGluR4 (Homo sapiens (Human), UniProt Q14833). Put plainly: mGluR4 potentiation assay, CHO cells transfected with human mGluR4, Ca2+-sensitive fluorescent dye, EC20 agonist. It counts as cell-based. As to conditions: potentiation of mGluR4; table does not state human or rat receptor. The protocol: The disclosed compounds and compositions can be evaluated for their ability to act as a potentiator of metabotropic glutamate receptor activity, in particular mGluR4 activity, by any suitable known methodology known in the art. For example, Chinese Hamster Ovary (CHO) cells transfected with human mGluR4 or HEK cells co-transfected with rat mGluR4 and the G-protein regulated Inwardly Rectifying Potassium channel (GIRK) were plated in clear bottom assay plates for assay in a Hamamatsu FDSS Fluorometric Plate Reader. The cells were loaded with either a Ca2+-sensitive fluorescent dye or the thallium responsive dye and the plates were washed and placed into a suitable kinetic plate reader. For human mGluR4 assays, a fluorescence baseline was established for 3-5 seconds, the disclosed compounds were then added to the cells, and the response in cells was measured. Approximately two and a half minutes later, a concentration of mGluR4 orthosteric agonist (e.g. glutamate or L-AP4) eliciting approximately 20% (EC20) of the maximal agonist response was added to the cells, and the response was measured. Two minutes later, a concentration of mGluR4 agonist (e.g. glutamate or L-AP4) eliciting 80% (EC80) of the maximal agonist response was added to the cells, and the response was measured. For rat mGluR4/GIRK experiments, a baseline was established for approximately five seconds, disclosed compounds were added, and either an EC20 or EC80 concentration of agonist was added approximately two and one half minutes later.
The above described assay operated in two modes. In the first mode, a range of concentrations of the disclosed compounds are added to cells, followed by a single fixed concentration of agonist. If the compound acts as a potentiatior, an EC50 value for potentiation and a maximum extent of potentiation by the compound at this concentration of agonist is determined by non-linear curve fitting. If the compound acts as a noncompetitive antagonist, an IC50 value is determined by non-linear curve fitting. In the second mode, several fixed concentrations of the disclosed compounds are added to various wells on a plate, followed by a range in concentrations of agonist for each concentration of disclosed compound. The EC50 values for the agonist at each concentration of compound are determined by non-linear curve fitting. A decrease in the EC50 value of the agonist with increasing concentrations of the sample compound (a leftward shift of the agonist concentration-response curve) is an indication of the degree of mGluR4 potentiation at a given concentration of the sample compound. A decrease in the maximal response of the agonist with increasing concentrations of the sample compounds, with or without a rightward shift in agonist potency, is an indication of the degree of noncompetitive antagonism at mGluR4. The second mode also indicates whether the sample compounds also affect the maximum response to mGluR4 to agonists.

Sequence of human mGluR4 (Q14833 33-912): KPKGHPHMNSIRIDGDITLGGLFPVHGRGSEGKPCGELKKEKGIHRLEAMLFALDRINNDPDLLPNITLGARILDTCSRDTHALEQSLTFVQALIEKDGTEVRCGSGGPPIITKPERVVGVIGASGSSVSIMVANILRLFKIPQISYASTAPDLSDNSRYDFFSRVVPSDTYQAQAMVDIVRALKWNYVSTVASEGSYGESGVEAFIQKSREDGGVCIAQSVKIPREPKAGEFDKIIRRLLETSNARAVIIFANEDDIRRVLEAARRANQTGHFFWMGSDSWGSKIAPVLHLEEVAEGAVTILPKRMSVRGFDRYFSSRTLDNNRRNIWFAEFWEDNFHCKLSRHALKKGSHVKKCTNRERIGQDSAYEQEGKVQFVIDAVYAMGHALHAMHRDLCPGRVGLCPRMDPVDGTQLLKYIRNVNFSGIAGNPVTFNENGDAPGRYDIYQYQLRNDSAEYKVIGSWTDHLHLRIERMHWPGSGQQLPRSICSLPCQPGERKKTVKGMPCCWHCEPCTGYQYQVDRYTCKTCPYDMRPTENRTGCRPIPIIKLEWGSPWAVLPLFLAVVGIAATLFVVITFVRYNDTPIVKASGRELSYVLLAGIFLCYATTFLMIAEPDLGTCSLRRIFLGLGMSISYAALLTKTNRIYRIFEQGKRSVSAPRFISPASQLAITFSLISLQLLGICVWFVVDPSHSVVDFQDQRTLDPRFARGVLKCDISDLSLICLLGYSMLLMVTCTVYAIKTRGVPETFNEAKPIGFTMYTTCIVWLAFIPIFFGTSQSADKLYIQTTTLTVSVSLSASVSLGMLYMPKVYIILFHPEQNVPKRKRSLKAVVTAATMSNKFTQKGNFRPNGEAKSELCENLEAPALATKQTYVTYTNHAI

Take `Clc1cccc(Oc2ccc(Nc3n[nH]c4cccnc34)cc2Cl)n1` [Example 77, N-(3-chloro-4-((6-chloropyridin-2-yl)oxy)phenyl)-1H-pyrazolo[4,3-b]pyridin-3-amine]: the EC50 worked out at 88 nM.

For `Clc1ccnc(Nc2n[nH]c3cccnc23)c1` [Example 13, N-(4-chloropyridin-2-yl)-1H-pyrazolo[4,3-b]pyridin-3-amine], the concentration giving a half-maximal response (EC50) stood at 284 nM.

`Cc1ccc(Cl)cc1Nc1n[nH]c2cccnc12` [Example 78, N-(5-chloro-2-methylphenyl)-1H-pyrazolo[4,3-b]pyridin-3-amine]: the EC50 was determined as 410 nM.

As to `Clc1cc(Cl)cc(Nc2n[nH]c3cccnc23)c1` [Example 69, N-(3,5-dichlorophenyl)-1H-pyrazolo[4,3-b]pyridin-3-amine], the EC50 was found to be 43 nM.

As to `COc1cc(Nc2n[nH]c3cccnc23)ccc1F` [Example 11, N-(4-fluoro-3-methoxyphenyl)-1H-pyrazolo[4,3-b]pyridin-3-amine], the half-maximal effective concentration (EC50) was 1030 nM.

Regarding `Fc1ccc(Nc2n[nH]c3nccnc23)cc1Cl` [Example 28, N-(3-chloro-4-fluorophenyl)-1H-pyrazolo[3,4-b]pyrazin-3-amine], the EC50 amounted to 156 nM.

On to `Fc1cc(Nc2n[nH]c3cccnc23)ccc1Oc1ccc(Cl)cn1` [Example 76, N-(4-((5-chloropyridin-2-yl)oxy)-3-fluorophenyl)-1H-pyrazolo[4,3-b]pyridin-3-amine], for which the EC50 was 151 nM.

Regarding `COc1ccc(Nc2n[nH]c3cccnc23)cc1Cl` [Example 8, N-(3-chloro-4-methoxyphenyl)-1H-pyrazolo[4,3-b]pyridin-3-amine], the EC50 stood at 282 nM.

`N#Cc1ccc(Nc2n[nH]c3cccnc23)cc1Cl` [Example 21, 4-((1H-pyrazolo[4,3-b]pyridin-3-yl)amino)-2-chlorobenzonitrile]: the 50% effective concentration (EC50) came out at 93 nM.

As for `Cc1cc(Nc2n[nH]c3cccnc23)ccc1F` [Example 82, N-(4-fluoro-3-methylphenyl)-1H-pyrazolo[4,3-b]pyridin-3-amine], the half-maximal effective concentration (EC50) turned out to be 68 nM.

In the case of `Clc1cc(Nc2n[nH]c3cccnc23)cnc1N1CCOCC1` [Example 30, N-(5-chloro-6-morpholinopyridin-3-yl)-1H-pyrazolo[4,3-b]pyridin-3-amine], the 50% effective concentration (EC50) was determined as 2380 nM.

In the case of `Fc1c(Cl)cc(Nc2n[nH]c3cccnc23)cc1Cl` [Example 43, N-(3,5-dichloro-4-fluorophenyl)-1H-pyrazolo[4,3-b]pyridin-3-amine], the EC50 was found to be 410 nM.

Take `c1ccc2ncc(Nc3n[nH]c4cccnc34)cc2c1` [Example 40, N-(1H-pyrazolo[4,3-b]pyridin-3-yl)quinolin-3-amine]: the 50% effective concentration (EC50) is 961 nM.

`O=C(c1cccc(C(F)(F)F)c1)c1ccc(Nc2n[nH]c3cccnc23)cc1Cl` [Example 38, (4-((1H-pyrazolo[4,3-b]pyridin-3-yl)amino)-2-chlorophenyl)(3-(trifluoromethyl)phenyl)methanone]: the half-maximal effective concentration (EC50) is 3880 nM.

`Fc1ccc(Nc2n[nH]c3cccnc23)cc1` [Example 65, N-(4-fluorophenyl)-1H-pyrazolo[4,3-b]pyridin-3-amine]: the 50% effective concentration (EC50) is 1420 nM.

Regarding `COc1cc(Nc2n[nH]c3cccnc23)ccc1Cl` [Example 6, N-(4-chloro-3-methoxyphenyl)-1H-pyrazolo[4,3-b]pyridin-3-amine], the EC50 was 1110 nM.

For `CNc1ncc(Nc2n[nH]c3cccnc23)cc1Cl` [Example 48, 3-chloro-N2-methyl-N5-(1H-pyrazolo[4,3-b]pyridin-3-yl)pyridine-2,5-diamine], the EC50 is 6440 nM.

As to `Clc1cc(N(c2ncccn2)c2n[nH]c3cccnc23)ccc1Oc1ncccn1` [Example 27, N-(3-chloro-4-(pyrimidin-2-yloxy)phenyl)-N-(pyrimidin-2-yl)-1H-pyrazolo[4,3-b]pyridin-3-amine], the half-maximal effective concentration (EC50) came out at 9070 nM.
